Data set [1] deals with human pancreatic cancer cells. More on the design: method as in PMID 10636070, PMID 7813546. Conditions: cited from earlier work.
The subject of another data set is CCK2R. More on the design: method as in PMID 10494457, PMID 10188727. As to conditions: cited from earlier work.
Data set [2] concerns human gastric cancer ascites cells. More on the design: method as in PMID 10494457, PMID 10188727. Conditions: mouse models inoculated with human gastric cancer ascites cells; cited from earlier work.
In data set [3] the test system is pancreatic tumor PDX models. Set-up: method as in PMID 34593598. As to conditions: cited from earlier work.
In another data set the test system is A431-CCK2R (+) cells. Nature of the data set: In vitro binding and internalization assay, A431-CCK2R (+) cells. The format is cell-based. More on the design: surface binding activity / internalization activity: concentration or dose not given beside the values. Conditions: for internalization activity / surface binding activity: A431-CCK2R (+) cells, 37 °C; for enhancement of internalization activity compared with PP-F11N: A431 CCK2R (+) cells, compared with conventional [^177Lu]Lu-DOTA-PP-F11N. How it is done: (§1) In vitro binding and internalization activities were measured using a gamma counter (WIZARD 1480, Perkin-Elmer). Briefly, A431-CCK2R (+) and A431-CCK2R (−) cells were seeded on 24-well plates (1 × 10^5 cells/well, Corning, NY, USA) for 12 h. The plated cells were treated with 30 ± 10 GBq/µmol of [^177Lu]Lu-DOTA-PP-F11N, [^177Lu]Lu-DOTA-INER-PP-F11N-1, or [^177Lu]Lu-DOTA-INER-PP-F11N-2 (1 mL/well) and then incubated at 37 °C for either 1 or 4 h. After incubation, the medium was collected, and the cells were then washed with ice-cold buffer. The medium and washed PBS were collected in tube 0. The washed cells were treated with glycine–HCl buffer (0.1 M, pH 3.0) and incubated for 10 min. After incubation, cells were washed again with glycine–HCl buffer. Both glycine-HCl buffer solutions were collected in tube 1. The washed cells were treated with 1 N NaOH (1 mL/well) and incubated for 10 min for cell lysis. After incubation, the cells were washed once with 1 N NaOH. The cell lysate solution was collected in tube 2. All tubes were analyzed using a gamma counter to detect radioactivity. Data were obtained from at least three independent experiments. The respective formulae for in vitro surface binding activity and internalization were as follows:Surface binding = tube 1/(tube 0 + tube 1 + tube 2) × 100%.Internalization = tube 2/(tube 0 + tube 1 + tube 2) × 100%.

For data set [4], the system named is A431-CCK2R (+) tumors. Nature of the data set: Therapeutic responses to Lu-177-labeled CCK2R analogs in CCK2R-expressing cancer-bearing mice. The format is in vivo. As to conditions: 200 μCi intravenously. How it is done:
(§2) To generate A431-CCK2R (+) and A431-CCK2R (−) tumor-bearing mice models, mice (3 per group) were inoculated subcutaneously with 6 × 10^6 cells, which were injected into the inner right back leg for A431-CCK2R (+) tumors and the left back leg for A431-CCK2R (−) tumors, respectively. These xenografts were monitored until the tumor volume reached approximately 200–500 mm^3 [57]. The mice were then randomized to subgroups for further experiments. The formula for calculating tumor volume (V) is V = 4/3πr^3.
(§3) We investigated therapeutic responses in mice receiving [^177Lu]Lu-DOTA-PP-F11N, [^177Lu]Lu-DOTA-INER-PP-F11N-1, or [^177Lu]Lu-DOTA-INER-PP-F11N-2. A431-CCK2R (+) and A431-CCK2R (−) cells were implanted subcutaneously into the right and left inner hind legs of NOD/SCID mice. Once the tumors reached a volume of 200–500 mm^3, the mice were intravenously injected with either 200 μCi of [^177Lu]Lu-DOTA-PP-F11N, [^177Lu]Lu-DOTA-INER-PP-F11N-1, [^177Lu]Lu-DOTA-INER-PP-F11N-2, or PBS (as a non-radioactive control). The NanoSPECT/CT® plus scanner system (Mediso Medical Imaging Systems; Budapest, Hungary) was utilized to detect and image tumors in the mouse models. Tumor volumes were measured twice a week for 4 weeks.

A short description of data set [5]: Metabolic stability analysis (radio-HPLC) in PBS at 4 °C or FBS at 37 °C. The class given is in vitro ADME. The procedure:
DOTA-PP-F11N, DOTA-INER-PP-F11N-1, and DOTA-INER-PP-F11N-2 were labeled with In-111 and Lu-177 for further experiments. The detection of free In-111 after ITLC extension was defined as 0% radiolabeling efficiency. […]
To measure the labeling efficiency, ITLC was performed on glass microfiber chromatography paper impregnated with a silica gel (Agilent Technologies, Santa Clara, CA, USA) as described previously. Briefly, the ITLC sheets were developed with 10% methanol as solvent (Rf free Lu-177 = 0, Rf Lu-177-labeled compounds = 1) and measured using a radioactive scanner (AR-2000 radio-TLC […] Imaging Scanner, Bioscan, France). The sample was mixed with acetonitrile at a 1:1 (v/v) ratio, followed by centrifugation at 16,000× g for 5 min. The resulting supernatant was subsequently analyzed using HPLC with UV (220[…]) and radio detector with a Zorbax SB-C18 column (Agilent Technologies, Santa Clara, CA, USA). The flow rate was 0.8 mL/min, with the gradient mobile phase going from 90% A […] buffer (0.1% TFA in water) and 10% B buffer (0.1% TFA in acetonitrile) to 90% B buffer […] within 20 min.

A further data set relates to A431-CCK2R (−) cells. Nature of the data set: In vitro binding and internalization assay, A431-CCK2R (−) cells. As to conditions: 37 °C. The format is cell-based. The procedure:
as §1

Data set [6] concerns A431-CCK2R (−)/A431-CCK2R (+) tumor-bearing mice. Nature of the data set: NanoSPECT/CT imaging of tumor-bearing mice. The class given is in vivo. How it is done: as §2
The NanoSPECT/CT® plus scanner system (Mediso Medical Imaging Systems; Budapest, Hungary) was utilized to detect in vivo tumors in the in vivo animal models. Both A431-CCK2R (+) and A431-CCK2R (−) cancer cells were inoculated subcutaneously into the inner right leg and left back leg of the mice. Radiopharmaceuticals—[^111In]In-DOTA-PP-F11N, [^111In]In-DOTA-INER-PP-F11N-1, and [^111In]In-DOTA-INER-PP-F11N-2 (1 mCi)—were injected once the mean tumor volume reached approximately 200–500 mm^3. Inhalant (1–2% isoflurane) was used to anesthetize the mice during imaging acquisition. X-ray CT images and SPECT images were taken 4, 24, and 48 h after tail-vein injection. NanoSPECT imaging was acquired using nine multi-pinhole gamma detectors with high-resolution collimators. The energy window was set at 171 and 245 KeV ± 10%, the image size was set at 256 × 256, and the field of view was set at 60 mm × 100 mm.
For Lu-177, only 208 keV photons were used for imaging, with an energy window set at 208 keV ± 10%. Although Lu-177 also emits lower abundance photons at 113 keV, the 208 keV photon provides better image quality due to reduced scatter and higher energy resolution. Therefore, the gamma camera energy windows were specifically tailored to the photon emission profiles of each radionuclide to ensure optimal detection efficiency and image accuracy.
as §3

Data set [7] is described as follows: Histopathological examinations (H&E) of mice after radiolabeled drug administration. The format is in vivo. Conditions: light microscopy. From the text: To investigate the pathological alterations in tumor-bearing mice receiving radiopharmaceuticals, […] tissues, including tumors, heart, liver, and kidneys, were collected. The specimens were first fixed using 10% buffered neutral formalin and then embedded in paraffin. Sections of 3–5 μm thickness were stained with H&E and examined using light microscopy (40 × and 20 ×).

Data set [8] has as its system A431-CCK2R (+) tumors. Nature of the data set: Biodistribution study in tumor-bearing mice. The class given is in vivo. As to conditions: biodistribution studies. How it is done: as §2
(§4) Mice were sacrificed via CO2 asphyxiation 72 h after intravenous injection of 50–100 μCi (50–100 μL) of radiolabeled DOTA-PP-F11N, DOTA-INER-PP-F11N-1, or DOTA-INER-PP-F11N-2 [58]. Tumors and organs of interest were collected for further pathological examinations. The PerkinElmer 2480 Automatic Gamma Counter (PerkinElmer, Waltham, MA, USA) was used to measure radioactivity; the data are presented as the percentage injected dose per gram of tissue (%ID/g).

A short description of data set [9]: Biodistribution study in tumor-bearing mice. The format is in vivo. As to conditions: mouse, intravenous, total radioactivity, 72 h after tail-vein injection, tumor-bearing mice. The procedure:
as §2, §4

Structures are written as SMILES. Read-outs that look alike come from different tables or passages of the source. Where a SMILES comes first, the peptide text is derived from it. [ ]: non-standard residue; d: D form. The star is where a group is joined. DOTA = O=C(O)CN1CCN(CC(=O)O)CCN(CC(=O)*)CCN(CC(=O)O)CC1; Butanoyl(4-(4-MePh)) = Cc1ccc(CCCC(=O)*)cc1; 4Amb = NCc1ccc(C(=O)O)cc1; Nle = CCCC[C@H](N)C(=O)O

For the compound `Cc1cccc(NC(=O)N[C@@H]2N=C(c3ccccc3)c3ccccc3N(C)C2=O)c1` [L-365260], the exogenous gastrin-induced proliferation result in data set [1] was “inhibited”.
In the case of `C[C@](Cc1c[nH]c2ccccc12)(NC(=O)OC1[C@H]2C[C@@H]3C[C@@H](C[C@H]1C3)C2)C(=O)NC[C@H](NC(=O)CCC(=O)O)c1ccccc1` (some centres unmarked) [CI-988], the “gastrin binding to CCK2R” value in the data set with CCK2R was “block gastrin binding to CCK2R”. For the same compound, the survival result in [2] is reported as “improve survival”.
Consider `Cc1cc(-c2ccc(NC(=O)CCCC(=O)N[C@@H](CCCCNC(=O)CN3CCN(CC(=O)O)CCN(CC(=O)O)CCN(CC(=O)O)CC3)C(=O)N3CCN(CCCOc4ccc5nccc(C(=O)NCC(=O)N6CC(F)(F)C[C@H]6C#N)c5c4)CC3)c(C)c2)ccc1N=Nc1ccc2c(S(=O)(=O)O)cc(S(=O)(=O)O)c(N)c2c1O` [TEFAPI-07], for which the “tumor uptake and retention” value in data set [3] is “significantly enhanced tumor uptake and retention”.
Consider `CCCC[C@H](NC(=O)[C@H](Cc1c[nH]c2ccccc12)NC(=O)CNC(=O)[C@H](Cc1ccc(O)cc1)NC(=O)[C@H](C)NC(=O)[C@@H](CCC(=O)O)NC(=O)[C@@H](CCC(=O)O)NC(=O)[C@@H](CCC(=O)O)NC(=O)[C@@H](CCC(=O)O)NC(=O)[C@@H](CCC(=O)O)NC(=O)[C@@H](CCC(=O)O)NC(=O)c1ccc(CNC(=O)[C@H](CCCCNC(=O)CCCc2ccc(C)cc2)NC(=O)CN2CCN(CC(=O)O)CCN(CC(=O)O)CCN(CC(=O)O)CC2)cc1)C(=O)N[C@@H](CC(=O)O)C(=O)N[C@@H](Cc1ccccc1)C(N)=O` [[^177Lu]Lu-DOTA-INER-PP-F11N-1, metal not drawn] ({DOTA}-K(Butanoyl(4-(4-MePh)))[4Amb][dE][dE][dE][dE][dE][dE]AYGW[Nle]DF-NH2), for which the internalization activity worked out at 45.32 ± 6.12% in the data set with A431-CCK2R (+) cells (1 h), 90.49 ± 5.65% in the data set on A431-CCK2R (+) cells (4 h), 0.32 ± 0.10 %IA/106 cells in the data set with A431-CCK2R (−) cells (1 h) and 0.17 ± 0.03 %IA/106 cells in the data set on A431-CCK2R (−) cells (4 h). Besides, the results for the surface binding activity in the data set with A431-CCK2R (+) cells (1 h), in the data set with A431-CCK2R (+) cells (4 h) and with A431-CCK2R (−) cells (1 h) were 5.93 ± 1.68%, 14.57 ± 4.06% and 1.08 ± 0.49 %IA/106 cells, respectively. In addition, the “enhancement of internalization activity compared with PP-F11N” value was 26.7% in the data set with A431-CCK2R (+) cells and 27% in the data set with A431-CCK2R (+) cells (listed as 177Lu-DOTA-INER-PP-F11N-1). Besides, in the data set with A431-CCK2R (+) tumors [4], the “tumor volume at D23” value is given as 841.33 ± 165.70 mm^3. Besides, the metabolic stability result in data set [5] (4 °C PBS, 144 h after Lu-177 labeling) is listed as “more than 95%”; in [5] (Lu-177-labeled, 37 °C FBS, 144 h), more than 99%. Moreover, in data set [6] (compared with Lu-177-labeled PP-F11N over the same period), the “radioactivity within the kidneys on NanoSPECT/CT” value is “significantly lower”. In addition, in data set [6] (tail-vein injection, Lu-177-labeled), the “radiotracer accumulation in the tumor region on NanoSPECT/CT” value is “avid radiotracer uptake within the tumor”. The “histopathological changes in the kidneys” value in data set [7] was “no significant histopathological changes”. The “histopathological changes in the liver and heart” value in [7] is listed as “no significant histopathological changes”. Besides, in the data set with A431-CCK2R (+) tumors [8], the tumor-to-kidney ratio result was “favorable”. Moreover, the tissue uptake at 72 h amounted to 7.4 ± 2.3 %ID/g in [9] (kidneys, read-out: radiotracer accumulation in the kidneys) and 1.14 ± 0.92 %ID/g in data set [9] (tumor (A431-CCK2R (+)), read-out: tumor uptake of radiopharmaceuticals).
